# Peptide text beside a SMILES is read from it. * marks the point of attachment. FITC = O=C1OC2(c3ccc(O)cc3Oc3cc(O)ccc32)c2ccc(NC(=S)*)cc21; Ahx = NCCCCCC(=O)O
# Columns and labels:
# M3P6 (MAGI-3 PDZ6) = M3P6 (MAGI-3 PDZ6) (Homo sapiens, UniProt Q5TCQ9); format: binding; details: for selectivity for M3P6 over N2P2: ratio of Ki values of Table 1; for shift in selectivity towards M3P6: relative to the native peptide, M3P6 vs N2P2
# [1] = biological target: M3P6m (I71V mutant of M3P6) (Homo sapiens, UniProt Q5TCQ9, I1085V); format: binding
# Chain of M3P6m (I71V mutant of M3P6) (Q5TCQ9 1040-1149 isoform Q5TCQ9-2 I1110V): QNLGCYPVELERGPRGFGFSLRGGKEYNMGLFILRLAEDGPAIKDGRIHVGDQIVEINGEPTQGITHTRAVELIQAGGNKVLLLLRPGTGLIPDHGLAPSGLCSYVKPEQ
# N2P2 (NHERF-2 PDZ2) = N2P2 (NHERF-2 PDZ2) (Homo sapiens, UniProt Q15599); assay: biochemical
# Chain of N2P2 (NHERF-2 PDZ2) (Q15599 143-280): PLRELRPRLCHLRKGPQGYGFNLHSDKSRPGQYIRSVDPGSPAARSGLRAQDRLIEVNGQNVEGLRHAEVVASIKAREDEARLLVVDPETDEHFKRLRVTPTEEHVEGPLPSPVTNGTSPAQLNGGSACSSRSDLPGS
# Chain of M3P6 (MAGI-3 PDZ6) (Q5TCQ9 1040-1149 isoform Q5TCQ9-2): as the sequence (Q5TCQ9 1040-1149 isoform Q5TCQ9-2 I1110V) above, with V71I counted along it
SMILES,Ki (M3P6 (MAGI-3 PDZ6)),Ki [1],also measured
"CC(C)[C@H](NC(=O)[C@H](Cc1c[nH]c2ccccc12)NC(=O)[C@@H](NC(=O)[C@H](CC(=O)O)NC(=O)[C@H](Cc1ccccc1)NC(=O)CN)[C@@H](C)O)C(=O)O [RD3, GFDTWV] (H-GFDTWV-OH)",6.8 ± 1.5 µM,,
"C[C@@H](O)[C@H](NC(=O)[C@H](CO)NC(=O)CNC(=O)[C@H](CO)NC(=O)CNC(=O)CNC(=O)CCCCCNC(=S)Nc1ccc2c(c1)C(=O)OC21c2ccc(O)cc2Oc2cc(O)ccc21)C(=O)N[C@@H](CCCNC(=N)N)C(=O)N[C@@H](Cc1ccccc1)C(=O)O [FD2 8-mer, FITC-Ahx-GGSGSTRF] ({FITC-Ahx}-GGSGSTRF-OH)",,,Kd (N2P2 (NHERF-2 PDZ2)): 3.6 ± 0.5 µM
"CC(C)[C@H](NC(=O)[C@H](Cc1c[nH]c2ccccc12)NC(=O)[C@@H](NC(=O)[C@H](CCC(=O)O)NC(=O)[C@H](Cc1ccccc1)NC(=O)[C@@H](N)CC(=O)O)[C@@H](C)O)C(=O)O [RD1, DFETWV] (H-DFETWV-OH)",1.8 ± 0.5 µM,,selectivity for M3P6 over N2P2 (M3P6 (MAGI-3 PDZ6)): 3 fold; shift in selectivity towards M3P6 (M3P6 (MAGI-3 PDZ6)): 5 fold
"CSCC[C@H](NC(=O)[C@@H](N)CC(C)C)C(=O)N[C@@H](CC(=O)O)C(=O)N[C@@H](CO)C(=O)N[C@H](C(=O)N[C@@H](CC(C)C)C(=O)O)[C@@H](C)O [LPA2 6-mer, LMDSTL, reference compound] (H-LMDSTL-OH)",47.4 ± 2.6 µM,67.7 ± 5.4 µM,
"CC(C)[C@H](NC(=O)[C@@H](NC(=O)[C@@H](NC(=O)[C@H](C)NC(=O)[C@H](Cc1ccccc1)NC(=O)[C@@H](N)CC(=O)O)[C@@H](C)O)[C@@H](C)O)C(=O)O [CAT, DFATTV] (H-DFATTV-OH)",,351 ± 17.9 µM,
"CC(C)[C@H](NC(=O)[C@H](CCCNC(=N)N)NC(=O)[C@@H](NC(=O)[C@H](C)NC(=O)[C@H](Cc1ccccc1)NC(=O)[C@@H](N)CC(=O)O)[C@@H](C)O)C(=O)O [CAR, DFATRV] (H-DFATRV-OH)",,285 ± 24.5 µM,
"CC(C)[C@H](NC(=O)[C@H](Cc1c[nH]c2ccccc12)NC(=O)[C@@H](NC(=O)[C@H](CCC(=O)O)NC(=O)[C@H](Cc1ccccc1)NC(=O)CN)[C@@H](C)O)C(=O)O [RD2, GFETWV] (H-GFETWV-OH)",2.7 ± 0.4 µM,,selectivity for M3P6 over N2P2 (M3P6 (MAGI-3 PDZ6)): 4.6 fold; shift in selectivity towards M3P6 (M3P6 (MAGI-3 PDZ6)): 8 fold

# Further lines, with some results ahead:
Ki (M3P6 (MAGI-3 PDZ6)),Ki [1],SMILES,also measured
,242 ± 17.6 µM,"CC(C)[C@H](NC(=O)[C@@H](NC(=O)[C@@H](NC(=O)[C@H](CO)NC(=O)[C@H](Cc1ccccc1)NC(=O)[C@@H](N)CC(=O)O)[C@@H](C)O)[C@@H](C)O)C(=O)O [CST, DFSTTV] (H-DFSTTV-OH)",
600 ± 300 µM,151 ± 15.9 µM,"C[C@@H](O)[C@H](N)C(=O)NCC(=O)N[C@@H](CCC(=O)O)C(=O)N[C@H](C(=O)N[C@H](C(=O)N[C@@H](Cc1ccccc1)C(=O)O)[C@@H](C)O)[C@@H](C)O [FD1, TGETTF] (H-TGETTF-OH)",
,510 ± 51.4 µM,"CC(C)[C@H](NC(=O)[C@H](CCCNC(=N)N)NC(=O)[C@@H](NC(=O)[C@H](CO)NC(=O)[C@H](Cc1ccccc1)NC(=O)[C@@H](N)CC(=O)O)[C@@H](C)O)C(=O)O [CSR, DFSTRV] (H-DFSTRV-OH)",
> 1000 µM,,"C[C@@H](O)[C@H](NC(=O)[C@H](CO)NC(=O)CNC(=O)[C@@H](N)CO)C(=O)N[C@@H](Cc1c[nH]cn1)C(=O)N[C@@H](Cc1ccccc1)C(=O)O [FD3, SGSTHF] (H-SGSTHF-OH)",

# Reference: paper PMC4970318 (Journal of molecular biology, 2014)
